Source: patent publication US20020010132A1, “COMPOSITIONS OF MURAMYL PEPTIDES INHIBITING THE REPLICATION OF HIV” (VACSYN S.A., priority 1994, published 2002)

Legend:
[1] = test system: HIV; settings: in vitro, 1000 μg/ml; cited from earlier work
[2] = test system: guinea pig macrophages; settings: cited from earlier work
[3] = test system: macrophages in culture; experiment: Proliferation of cultured macrophages (3H-thymidine incorporation); format: cell-based, human; settings: for inhibition of proliferation of macrophages stimulated with the combination IL-3/GM-CSF / inhibition of proliferation of macrophages stimulated with IL-3: 1 μg/ml; for inhibition of proliferation of macrophages stimulated with the combination IL-3/GM-CSF: hr IL-3 and hr GM-CSF stimulated; for inhibition of proliferation of macrophages stimulated with IL-3: hr IL-3 stimulated, compound added a day before 3H-thymidine; for inhibition of spontaneous proliferation: without stimulation
Protocol: For that, monocytes collected from a donor are cultured for 5 days either a) without stimulation (so as to evaluate their spontaneous proliferation level) or b) in the presence of human recombinant interleukin-3 (hr IL-3) or c) in the presence of both hr IL-3 and hr GM-CSF human recombinant granulocyte-macrophage colony stimulating factor. These two treatments make it possible to obtain a high level of proliferation. The compounds of the invention are added to the culture medium a day before the addition of tritiated thymidine (^3H-thymidine). The dividing cells incorporate this thymidine. The cells (which have differentiated into macrophages during the duration of the culture) are recovered and washed, and the proliferation level is evaluated by measuring, in a beta counter, the quantity of ^3H incorporated according to conventional methods as described in Blood, Vol. 76, pages 1490-1493, 1990.

[4] = Clinical trials: tolerance in healthy volunteers and cancer subjects; format: in vivo, man
[5] = test system: HIV (HTLV III Ba-L); experiment: HIV replication in primary cultures of human monocytes (viral protein P24 in supernatants, day 7); format: cell-based
Protocol: Some cultures were treated with different concentrations of the compounds either 1 day before, or the same day, or 1 day after inoculation with HIV. The replication of the virus was evaluated on day 7 by measurement of the quantity of viral protein P24 in the supernatants as described in Blood, Vol. 76, page 1490-1493, 1990.

[6] = test system: HIV; settings: cited from earlier work

Row | Compound | inhibition of proliferation of macrophages stimulated with the combination IL-3/GM-CSF [3] | inhibition of proliferation of macrophages stimulated with IL-3 [3] | inhibition of spontaneous proliferation ([3]; 10 μg/ml) | side effects in man [4] | tolerance in man [4] | other results
1 | N-acetyl-muramyl-L-alanyl-D-Isoglutamine [MDP] | – | – | – | – | – | inhibition of the replication of HIV [1]: partially inhibiting the replication of HIV; inhibition of the proliferation of guinea pig macrophages [2]: capable of inhibiting the proliferation
2 | COC(=O)[C@@H](CCC(N)=O)NC(=O)[C@H](C)NC(=O)[C@@H](C)O[C@H]1[C@H](O)[C@@H](CO)OC(O)[C@@H]1NC(C)=O (stereo partly drawn) [Murametide, Nac-Mur-L-Ala-DGln OMe] | inhibiting the proliferation | inhibiting the proliferation | inhibition of spontaneous proliferation was observed | free of side effects | very good tolerance | inhibition of spontaneous proliferation ([3]; 50 μg/ml): inhibition of spontaneous proliferation was observed; suppression of viral replication ([5]; 50 μg/ml, regardless of the time of treatment): 100%; suppression of viral replication ([5]; different concentrations, treatment 1 day before, same day or 1 day after inoculation): highly significant suppression of viral replication
3 | CCCCCCCCCCCCCCCC(=O)OC[C@H](COP(=O)(O)OCCNC(=O)[C@H](C)NC(=O)CC[C@@H](NC(=O)[C@H](C)NC(=O)[C@@H](C)O[C@@H]([C@H](O)[C@H](O)CO)[C@H](C=O)NC(C)=O)C(N)=O)OC(=O)CCCCCCCCCCCCCCC [MTP-PE] | – | – | – | – | – | activity on viral replication ([6]; compound added a day before or 4 days after): minimal; total suppression of viral replication ([6]; free form or incorporated into liposomes): not capable; reduction in viral replication ([6]; free form, added repeatedly before and after HIV infection): only a partial reduction in viral replication
4 | CCCCOC(=O)[C@@H](CCC(N)=O)NC(=O)[C@H](C)NC(=O)[C@@H](C)O[C@H]1[C@H](O)[C@@H](CO)OC(O)[C@@H]1NC(C)=O (stereo partly drawn) [Murabutide, Nac-Mur-L-Ala-DGln OnC4H9] | inhibiting the proliferation | inhibiting the proliferation | inhibition of spontaneous proliferation was observed | free of side effects | very good tolerance | inhibition of viral replication ([5]; 10 to 50 μg/ml, treatment on day -1, day 0 or day +1 relative to infection, P24 on day 7): completely inhibits viral replication
